System: Nrf2
Experiment: Induction of the Nrf2 pathway, luciferase reporter assay in the « ARE Reporter-HepG2 » cell model
Type: cell-based
Conditions: 18 hours of contact, relative to solvent control cells
Experimental: Le but de l'étude est d'évaluer l'induction de la voie Nrf2 dans le modèle cellulaire « ARE Reporter-HepG2 » (HepG2; BPS BIOSCIENCE) [Lee et al., (2004), Dinkova-Kostova et al., (2002)] par l'actif visé dans l'invention.
En parallèle du test de cytotoxicité, des cellules HepG2 ont été également ensemencées dans des puits de plaques à 96 puits (plaques opaques avec fond transparent) à raison de 40 000 cellules/puits (volume de 100 µL), en milieu M1.
Seuls les 60 puits centraux des plaques ont été utilisés, les puits restants n'ont reçu que du PBS.
Après adhésion des cellules, le milieu de culture M1 a été enlevé. Les cellules ont été traitées (volume final: 50 µL) avec le produit à l'essai, dilué dans le milieu de culture M1 (n=3/concentration à tester, 1 concentration/produit), pendant 18 heures. […]
Les puits « sans cellules » ont servi à la détection de la luminescence liée au bruit de fond du milieu. Les puits « cellules témoins » ont servi à la détection de la luminescence intrinsèque du système d'essais (sans activation). […]
A la fin de la période d'incubation (18 heures à 37°C, 5 % de CO2), les cellules ont été lysées par ajout de 100 µL du réactif « One-step luciferase assay system ». La luminescence émise par la luciférase néo-synthétisée a été évaluée avec un luminomètre Optima. […]

Structure (SMILES) | activity at 3 µM (Homo sapiens, HepG2, 3 µM, read-out: luminescence émise par les cellules HepG2 traitées, en comparaison au témoin solvant (activation de Nrf2)) | activity at 0.00125 % (dose 0,00125 %, read-out: taux d'activation de Nrf2)
C[S+]([O-])CCCCN=C=S (centres unmarked) [sulforaphane] | 438% | 
COc1cc(COC(=O)/C=C/c2cc(OC)c(OC(C)=O)c(OC)c2)cc(OC)c1OC [trimethoxybenzyl acetylsinapate, 3-[4-(acetyloxy)-3,5-dimethoxyphenyl] -(3,4,5-trimethoxyphenyl)methyl ester-(2E)-Propenoic acid] |  | 164%

— patent EP3466419B1, “USE OF TRIMETHOXYBENZYL ACETYLSINAPATE, ADVANTAGEOUSLY IN COMBINATION WITH AT LEAST ONE SUNSCREEN, FOR PROTECTING THE SKIN” (Thorel, Jean-Noël, priority 2017, dated 2019)
